Converted amounts (≈) assume the structure as drawn. Like-named read-outs stand apart in the source and are kept apart here. Numbered stars: 1 amine (or outer) side, 2 acyl side, 3 side chain; on linkers, the order of the positions; unused ones are H or OH. Square brackets hold non-standard residues; d marks the D form. Peptide text beside a SMILES is read from it. ξ: configuration not given here. X1 = CC(C)N1CCN(c2ccc(-c3cccc(C[C@@H](C(=O)[*:2])N(C)[*:1])c3)cc2)CC1; NMePhe(3-(3-pyridyl)) = CN[C@@H](Cc1cccc(-c2cccnc2)c1)C(=O)O; X36 = CN([C@@H](Cc1ccc(-c2cccnc2)cc1)C(=O)[*:2])[*:1]; Hmp(2R,3S) = CC[C@H](C)[C@@H](O)C(=O)O; NMeVal(β-OH) = CN[C@H](C(=O)O)C(C)(C)O; X6 = CCC(C)[C@@H](O[*:1])C(=O)[*:2]; ξNMeVal(3-OH) = CNC(C(=O)O)C(C)(C)O; Ile(3ξ) = CCC(C)[C@H](N)C(=O)O; NMeV = CN[C@H](C(=O)O)C(C)C; ξL = CC(C)CC(N)C(=O)O Bounds are passed on as bounds.

Experiment [1] concerns C. albicans MMX 2000 ATCC 10231. Put plainly: MIC assay (CLSI microdilution). Format: cell-based. The conditions noted are these: Candida albicans, ATCC10231, RPMI plus 0.002% Tween-80; read-out: MIC. (In broth dilution the organism is exposed to a series of concentrations in liquid medium.)
Experiment [2] concerns C. neoformans MMX 0634 ATCC 90112. As to the kind of experiment: MIC assay (CLSI microdilution). It is filed as cell-based.
Experiment [3] relates to A. fumigatus MMX 5280 ATCC MYA-3626. As to the kind of experiment: MIC/MEC assay (CLSI microdilution). Format: cell-based, Aspergillus fumigatus. The method in brief: (§1)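 CLSI microdilution; RPMI-1640 + 0.002% Tween-80 (MMX 5280 additionally without Tween). Two-fold dilution series, compounds from EtOH stocks, amphotericin B from DMSO, tested 0.06-64 μg/mL. Inoculum ~0.2-2.5×10^4 CFU/mL final.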

Experiment [4] deals with C. albicans MMX 2000 ATCC 10231. Put plainly: MIC assay (CLSI microdilution). Conditions: Candida albicans, ATCC10231, Without Tween-80; read-out: MIC. It is filed as cell-based.
Experiment [5] concerns C. parapsilosis MMX 2323 ATCC 22019. The conditions noted are these: Without Tween-80; quality control range; cited from earlier work.
Experiment [6] deals with A. fumigatus MMX 5280 ATCC MYA-3626. Conditions: Without Tween-80, quality control range, cited from earlier work.
Experiment [7] relates to C. parapsilosis MMX 2323 ATCC 22019. As to the kind of experiment: MIC assay (CLSI microdilution). Format: cell-based, Candida parapsilosis. Conditions: read-out: MIC. The method, boiled down:
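Broth microdilution MIC testing of Candida parapsilosis ATCC 22019 followed CLSI methods in RPMI-1640, with or without 0.002% Tween-80. Yeast grown 48 hours at 35° C on Sabouraud dextrose agar was suspended to a 0.5 McFarland standard and diluted 1:100 to roughly 0.5-2.5×10^3 CFU/mL. The MIC was the lowest concentration preventing visible growth.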

The subject of a further experiment is A. flavus MMX 5948. As to the kind of experiment: MIC/MEC assay (CLSI microdilution). Format: cell-based. Conditions: Aspergillus flavus, MMX5948, 48 h, RPMI plus 0.002% Tween-80. The method, boiled down:
as §1

The subject of the next experiment is A. fumigatus MMX 5944. As to the kind of experiment: MIC/MEC assay (CLSI microdilution). Format: cell-based. The method in brief:
as §1

The test system of experiment [8] is A. fumigatus MMX 6781 ATCC MYA-4609. As to the kind of experiment: MIC/MEC assay (CLSI microdilution). It is filed as cell-based. Conditions: Aspergillus fumigatus. The method in brief: as §1
For experiment [9], the system named is A. fumigatus MMX 6782 ATCC 13073. As to the kind of experiment: MIC/MEC assay (CLSI microdilution). Format: cell-based. The method, boiled down:
as §1

Experiment [10] has as its system A. fumigatus from Aureogen. As to the kind of experiment: MIC/MEC assay (CLSI microdilution). Format: cell-based. The method in brief: as §1
The subject of experiment [11] is A. niger MMX 0624 ATCC 16888. Put plainly: MIC/MEC assay (CLSI microdilution). It is filed as cell-based. The method in brief: as §1
In the next experiment the test system is Coccidiodes immitus. Put plainly: organism not typed. It is filed as cell-based.
The subject of another experiment is A. fumigates. As to the kind of experiment: Antifungal activity of separated positional isomers of Compound X. It is filed as cell-based. As to the method: Test Procedure. The MIC assay method followed the procedure described by CLSI (1, 2) and employed automated liquid handlers to conduct serial dilutions and liquid transfers. Automated liquid handlers included the Multidrop 384 (Labsystems, Helsinki, Finland), Biomek 2000 and Biomek FX (Beckman Coulter, Fullerton Calif.). The wells in columns 2-12 in standard 96-well microdilution plates (Costar 3795) were filled with 150 μl of the appropriate diluent (95% EtOH for investigational compounds, 100% DMSO for amphotericin B). These assay plates would become the ‘mother plates’ from which the assay ‘daughter plates’ would be prepared. The drugs (300 μL at 40× the desired top concentration in the test plates) were dispensed into the appropriate well in Column 1 of the mother plates. The Biomek 2000 was used to make two-fold serial dilutions through Column 11 in the “mother plate”. The wells of Column 12 contained no drug and served as the organism growth control wells.
The microplates were viewed from the bottom using a plate viewer. […] The MIC was read and recorded as the lowest concentration of drug that inhibited visible growth of the organism. MECs were read where the growth shifted to a small, rounded, compact hyphal form as compared to the hyphal growth seen in the growth control well. […]

Where [12] appears, read: Cryptococcus neoformans, ATCC90112, 72 h, 72 hour, RPMI plus 0.002% Tween-80, read-out: MIC.
[13] abbreviates: Cryptococcus neoformans, ATCC90112, RPMI plus 0.002% Tween-80, read-out: MIC.
Setting [14] is: RPMI plus 0.002% Tween-80, 48 hr.
Where [15] appears, read: Aspergillus fumigatus, 48 h, RPMI plus 0.002% Tween-80, read-out: MIC.

What is called MIC is the lowest concentration found to suppress growth. Consider `C[C@@H]1[C@H](O)[C@@H](C)/C=C/C=C/C=C/C=C/C=C/C=C/C=C/[C@H](O[C@@H]2O[C@H](C)[C@@H](O)[C@H](N)[C@@H]2O)C[C@@H]2O[C@](O)(C[C@@H](O)C[C@@H](O)[C@H](O)CC[C@@H](O)C[C@@H](O)CC(=O)O[C@H]1C)C[C@H](O)[C@H]2C(=O)O` [Amphotericin B, reference compound], for which the MIC in [1] is no more than 0.06 mg/L; in experiment [2] (setting [12]), no more than 0.06 mg/L; in [2] (setting [13]), no more than 0.06 mg/L; in experiment [3] (Without Tween-80, 48 hr), 0.5 mg/L (≈ 0.541 µM); in experiment [4], no more than 0.06 mg/L. Moreover, the figures for the “CLSI QC Range (MIC)” value in experiment [5], in experiment [6] and in experiment [6] (listed as Amph. B) were “(0.25-1)^1 μg/mL”, 0.5 to 4 mg/L and “(0.5-4)^1 μg/mL”, respectively.
Take `CC[C@H](C)[C@@H]1NC(=O)[C@@H]2CCCN2C(=O)[C@H](Cc2cccc(-c3ccc(N4CCN(C(C)C)CC4)cc3)c2)N(C)C(=O)[C@H](Cc2ccccc2)NC(=O)[C@H](C(C)C)N(C)C(=O)[C@@H]([C@@H](C)CC)OC(=O)[C@H](C(C)(C)O)N(C)C(=O)[C@H](CC(C)C)NC(=O)[C@H](C(C)C)N(C)C1=O` [Compound 25] (cyclo(F[X1]PI[NMeV]L[NMeVal(β-OH)][Hmp(2R,3S)][NMeV])): the MIC in experiment [1] came to 0.015 mg/L; in [2] (72 hour, RPMI plus 0.002% Tween-80), 0.06 mg/L; in experiment [2] (setting [12]), 0.06 mg/L; in [2] (setting [13]) it was 0.015 mg/L; in experiment [7] (ATCC22019, RPMI plus 0.002% Tween-80), 0.03 mg/L; in experiment [7] (ATCC22019, Without Tween-80), 1 mg/L (≈ 0.767 µM). In addition, the MIC came to 0.06 mg/L in the experiment on A. fumigatus MMX 5944 (Aspergillus fumigatus, MMX5944, 48 h, RPMI plus 0.002% Tween-80, read-out: MIC); 0.06 mg/L in the experiment with A. fumigatus MMX 5944 (setting [14]); 0.12 mg/L in experiment [8] (48 h, RPMI plus 0.002% Tween-80, read-out: MIC); 0.06 mg/L in experiment [9] (Aspergillus fumigatus, ATCC13073, 48 h, RPMI plus 0.002% Tween-80, read-out: MIC); 0.06 mg/L in experiment [9] (setting [14]); 0.12 mg/L in experiment [10] (setting [15]). The MIC in experiment [11] (Aspergillus niger, ATCC16888, 48 h, RPMI plus 0.002% Tween-80, read-out: MIC) amounted to 0.015 mg/L; in experiment [11] (setting [14]), 0.015 mg/L; in experiment [3] (setting [15]) it was 0.12 mg/L; in experiment [3] (Aspergillus fumigatus, 48 h, Without Tween-80, read-out: MIC) it was 1 mg/L (≈ 0.767 µM); in experiment [3] (Without Tween-80, 48 hr) it was 1 mg/L (≈ 0.767 µM); with Coccidiodes immitus, 0.15 mg/L (≈ 0.115 µM). Moreover, in experiment [4], the MIC was 1 mg/L (≈ 0.767 µM). Also, the minimal effective concentration in the experiment on A. flavus MMX 5948 was 0.008 µg/mL; in the experiment on A. fumigatus MMX 5944 (Aspergillus fumigatus, MMX5944, 48 h, RPMI plus 0.002% Tween-80), 0.015 µg/mL; in [8] (setting [14]) it was 0.03 µg/mL; in experiment [9] (Aspergillus fumigatus, ATCC13073, 48 h, RPMI plus 0.002% Tween-80, read-out: MEC), 0.015 µg/mL; in [10] (Aspergillus fumigatus, 48 h, RPMI plus 0.002% Tween-80), 0.06 µg/mL; in experiment [11] (Aspergillus niger, ATCC16888, 48 h, RPMI plus 0.002% Tween-80, read-out: MEC), 0.015 µg/mL. In addition, the minimal effective concentration stood at 0.03 µg/mL in experiment [3] (Aspergillus fumigatus, 48 h, RPMI plus 0.002% Tween-80, read-out: MEC) and 0.5 µg/mL in experiment [3] (Aspergillus fumigatus, 48 h, Without Tween-80, read-out: MEC). Also, the MEC was 0.06 µg/mL in experiment [10] (setting [14]) and 1/1 μg/mL in experiment [3] (Without Tween-80, 48 hr).
For `CCC(C)[C@@H]1NC(=O)[C@@H]2CCCN2C(=O)[C@H](Cc2cccc(-c3cccnc3)c2)N(C)C(=O)[C@H](Cc2ccccc2)NC(=O)[C@H](C(C)C)N(C)C(=O)[C@@H](C(C)CC)OC(=O)C(C(C)(C)O)N(C)C(=O)C(CC(C)C)NC(=O)[C@H](C(C)C)N(C)C1=O` (stereo partly drawn) [meta-substituted positional isomer of Compound X] (cyclo(F[NMePhe(3-(3-pyridyl))]P[Ile(3ξ)][NMeV][ξL][ξNMeVal(3-OH)][X6][NMeV])), the minimal inhibitory concentration (MIC) in the experiment with A. fumigates amounted to 0.6 mg/L (≈ 0.509 µM).
For `CCC(C)[C@@H]1NC(=O)[C@@H]2CCCN2C(=O)[C@H](Cc2ccc(-c3cccnc3)cc2)N(C)C(=O)[C@H](Cc2ccccc2)NC(=O)[C@H](C(C)C)N(C)C(=O)[C@@H](C(C)CC)OC(=O)C(C(C)(C)O)N(C)C(=O)C(CC(C)C)NC(=O)[C@H](C(C)C)N(C)C1=O` (stereo partly drawn) [para substituted positional isomer of Compound X] (cyclo(F[X36]P[Ile(3ξ)][NMeV][ξL][ξNMeVal(3-OH)][X6][NMeV])), in the experiment on A. fumigates, the MIC is greater than 2.5 mg/L.

(Values after patent US11066447B2, “Aureobasidium derivatives and methods of synthesis” (AureoGen Biosciences, Inc., priority 2016, dated 2021).)
